Assay results as given in patent US20200331904A1, “3-AMINO-[1,2,4]-TRIAZOLE DERIVATIVES AND THEIR USE FOR CONTROLLING UNDESIRED PLANT GROWTH” (Bayer CropScience Aktiengesellschaft, priority 2017, published 2020).

Tests used:
Type in all cases: in vivo
Matricaria inodora = assay: Pre-emergence herbicidal efficacy, MATIN
Outline: (§1)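 Visual percent activity relative to untreated plants (0% = like control, 100% = dead), scored about 3 weeks after treatment under greenhouse conditions.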

Viola tricolor [1] = assay: Pre-emergence herbicidal efficacy, VIOTR
Outline: as §1

Veronica persica [2] = assay: Post-emergence herbicidal efficacy, VERPE
Excerpt: (§2) ABUTH: Abutilon theophrasti ALOMY: Alopecurus myosuroides AMARE: Amaranthus retroflexus AVEFA: Avena fatua CYPES: Cyperus esculentus ECHCG: Echinochloa crus-galli LOLMU: Lolium multiflorum MATIN: Matricaria inodora PHBPU: Ipomoea purpurea POLCO: Polygonum convolvulus SETVI: Setaria viridis STEME: Stellaria media VERPE: Veronica persica VTOTR: Viola tricolor
(§3) C.2 Post-Emergence Herbicidal Action and Crop Plant Compatibility
(§4) Seeds of monocotyledonous and dicotyledonous weeds and crop plants are placed in sandy loam in plastic or organic planting pots, covered with soil and cultivated in a greenhouse under controlled growth conditions. 2 to 3 weeks after sowing, the test plants are treated at the one-leaf stage. The compounds of the invention, formulated in the form of wettable powders (WP) or as emulsion concentrates (EC), are then sprayed onto the green parts of the plants as aqueous suspension or emulsion with addition of 0.5% additive at a water application rate of […] (converted). After the test plants had been kept in the greenhouse under optimum growth conditions for about 3 weeks, the activity of the preparations is rated visually in comparison to untreated controls. For example, 100% activity=the plants have died, 0% activity=like control plants.

Viola tricolor [3] = assay: Post-emergence herbicidal efficacy, VIOTR
Excerpt: as §2, §3, §4

Stellaria media = assay: Pre-emergence herbicidal efficacy, STEME
Outline: as §1

Amaranthus retroflexus = assay: Pre-emergence herbicidal efficacy, AMARE; settings: scored visually after about 3 weeks vs untreated controls
Outline: as §1

Veronica persica [4] = assay: Pre-emergence herbicidal efficacy, VERPE; settings: scored visually after about 3 weeks vs untreated controls
Outline: as §1

Lolium rigidum = assay: Pre-emergence herbicidal efficacy, LOLRI; settings: Table B1, application rate 320 g/ha, scored visually after about 3 weeks vs untreated controls
Excerpt: C.1 Pre-Emergence Herbicidal Action and Crop Plant Compatibility Seeds of monocotyledonous and dicotyledonous weed plants and crop plants are placed in plastic or organic planting pots and covered with soil. The compounds of the invention, formulated in the form of wettable powders (WP) or as emulsion concentrates (EC), are then applied onto the surface of the covering soil as aqueous suspension or emulsion with addition of 0.5% additive at a water application rate of […] (converted). After the treatment, the pots are placed in a greenhouse and kept under good growth conditions for the trial plants. After about 3 weeks, the effect of the preparations is scored visually in comparison with untreated controls as percentages. For example, 100% activity=the plants have died, 0% activity=like control plants. […] Here, for example, compound Nos. I-214 and I-196, when applied pre-emergence, have very good activity (80% to 100% herbicidal activity) against harmful plants such as Abutilon theophrasti, Amaranthus retroflexus, Echinochloa crus-galli, Lolium rigidum, Matricaria inodora, Polygonum convolvulus, Setaria viridis, Stellaria media, Veronica persica and Viola tricolor at an application rate of 0.32 kg of active substance or less per hectare. At the same time, some of the compounds according to the invention leave Gramineae crops such as barley, wheat, rye, millet/sorghum, corn, rice or sugar cane virtually undamaged when applied pre-emergence, even at high active compound dosages. In addition, some substances are also harmless to dicotyledonous crops such as soya, cotton, oilseed rape or sugar beet.

Setaria viridis = assay: Pre-emergence herbicidal efficacy, SETVI; settings: Table B1, application rate 320 g/ha, scored visually after about 3 weeks vs untreated controls
Excerpt: (§5) C.1 Pre-Emergence Herbicidal Action and Crop Plant Compatibility
(§6) Seeds of monocotyledonous and dicotyledonous weed plants and crop plants are placed in plastic or organic planting pots and covered with soil. The compounds of the invention, formulated in the form of wettable powders (WP) or as emulsion concentrates (EC), are then applied onto the surface of the covering soil as aqueous suspension or emulsion with addition of 0.5% additive at a water application rate of […] (converted). After the treatment, the pots are placed in a greenhouse and kept under good growth conditions for the trial plants. After about 3 weeks, the effect of the preparations is scored visually in comparison with untreated controls as percentages. For example, 100% activity=the plants have died, 0% activity=like control plants.
as §2

Polygonum convolvulus = assay: Pre-emergence herbicidal efficacy, POLCO; settings: Table B1, application rate 320 g/ha, scored visually after about 3 weeks vs untreated controls
Excerpt: as §5, §6, §2

Abutilon theophrasti = assay: Pre-emergence herbicidal efficacy, ABUTH; settings: Table B1, application rate 320 g/ha, scored visually after about 3 weeks vs untreated controls
Excerpt: as §5, §6, §2

Echinochloa crus-galli = assay: Pre-emergence herbicidal efficacy, ECHCG; settings: Table B1, application rate 320 g/ha, scored visually after about 3 weeks vs untreated controls
Excerpt: as §5, §6, §2

[5] = application rate 320 g/ha, scored visually after about 3 weeks
[6] = application rate 1280 g/ha, rated visually after about 3 weeks
[7] = Table B2, application rate 320 g/ha, scored visually after about 3 weeks vs untreated controls
[8] = Table B2, application rate 320 g/ha
[9] = application rate 320 g/ha, rated visually after about 3 weeks (Table B7)
[10] = Table B1, application rate 320 g/ha, scored visually after about 3 weeks vs untreated controls
[11] = Table B1, application rate 320 g/ha

Row | SMILES | Herbicidal efficacy against MATIN (Matricaria inodora; [5]) | Herbicidal efficacy against VIOTR (Viola tricolor [1]; [5]) | Herbicidal efficacy against STEME (Stellaria media; [5]) | Herbicidal efficacy against LOLRI (Lolium rigidum) | Herbicidal efficacy against MATIN (Matricaria inodora; [10]) | Herbicidal efficacy against SETVI (Setaria viridis) | Herbicidal efficacy against VIOTR (Viola tricolor [1]; [10]) | Herbicidal efficacy against AMARE (Amaranthus retroflexus; [11]) | Herbicidal efficacy against VERPE (Veronica persica [4]; [11]) | Herbicidal efficacy against POLCO (Polygonum convolvulus) | Herbicidal efficacy against ABUTH (Abutilon theophrasti) | Herbicidal efficacy against ECHCG (Echinochloa crus-galli) | Herbicidal efficacy against STEME (Stellaria media; [10]) | also measured
1 | [O-][S+]1CCCCn2nc(NC3CCOc4ccccc43)nc21 (centres unmarked) [Example I-247] | 100% | 100% | 100% | – | – | – | – | – | – | – | – | – | – | Herbicidal efficacy against VERPE (Veronica persica [2]; [6]): 80%; Herbicidal efficacy against VIOTR (Viola tricolor [3]; [6]): 80%
2 | O=C1CCn2nc(NC3CCOc4ccccc43)nc2N1Cc1cccc(C(F)(F)F)c1 (centres unmarked) [Example I-273] | 80% | 100% | 100% | – | – | – | – | – | – | – | – | – | – | Herbicidal efficacy against VERPE (Veronica persica [2]; [6]): 100%; Herbicidal efficacy against VIOTR (Viola tricolor [3]; [6]): 90%
3 | Cc1ccc2c(c1)C(Nc1nc3n(n1)CCCN3S(=O)(=O)C1CC1)CCC2 (centres unmarked) [Example I-327] | 100% | 100% | 100% | – | – | – | – | – | – | – | – | – | – | Herbicidal efficacy against MATIN (Matricaria inodora; [7]): 100%; Herbicidal efficacy against VIOTR (Viola tricolor [1]; [7]): 100%; Herbicidal efficacy against AMARE (Amaranthus retroflexus; [8]): 100%; Herbicidal efficacy against VERPE (Veronica persica [4]; [8]): 100%; Herbicidal efficacy against VERPE (Veronica persica [2]; [9]): 90%; Herbicidal efficacy against VIOTR (Viola tricolor [3]; [9]): 80%; Herbicidal efficacy against STEME (Stellaria media; [7]): 100%
4 | Cc1ccc2c(c1)[C@H](Nc1nc3n(n1)CCCS3)[C@@H](C)C2 [Example I-348] | – | – | – | 80% | 100% | 100% | 100% | 100% | 100% | 100% | 100% | 100% | 100% | –
5 | Cc1ccc2c(c1)[C@H](Nc1nc3n(n1)CCCCS3(=O)=O)CC2 [Example I-365] | – | – | – | 100% | 100% | 100% | 100% | 100% | 100% | 100% | 100% | 90% | 100% | –
6 | Cc1ccc2c(c1)[C@H](Nc1nc3n(n1)CCCC[S+]3[O-])CC2 (some centres unmarked) [Example I-370] | – | – | – | 100% | 100% | 100% | 100% | 100% | 100% | 100% | 100% | 100% | 100% | –
7 | Cc1ccc2c(c1)C(Nc1nc3n(n1)CCCC[S+]3[O-])C(C)C2 (centres unmarked) [Example I-371] | – | – | – | 100% | 100% | 100% | 100% | 100% | 100% | 100% | 100% | 100% | 100% | –
8 | Cc1ccc2c(c1)[C@H](Nc1nc3n(n1)CCCS3)CCO2 [Example I-376] | – | – | – | 100% | 100% | 100% | 100% | 100% | 100% | 100% | 100% | 100% | 100% | –
9 | Cc1ccc2c(c1)[C@H](Nc1nc3n(n1)CCCC[S+]3[O-])CCO2 (some centres unmarked) [Example I-380] | – | – | – | 80% | 100% | 100% | 100% | 100% | 100% | 100% | 100% | 100% | 100% | –
